In patent US20210221867A1, “Compounds Capable of Binding to Melanocortin 4 Receptor” (Novo Nordisk A/S, priority 2018, published 2021) one finds EC50 and IC50 data, which are given here for six molecules.

In experiment [1] the target is T1, human MC1R (Homo sapiens, UniProt Q01726).
T1 construct: expressed in transfected cells
In words: Functional human melanocortin receptor 1 assay (cAMP, HTRF). Type of experiment: cell-based. Conditions: cAMP induction, BHK cells expressing the human MC1 receptor, 30 min, 25° C. The protocol: (§1) In order to assess the potency of the compounds on human MC1R and human MC4R cAMP signalling was measured.
(§2) cAMP induction was measured by c-AMPdynamic2 assay, HTRF 62AM4PEC system from CisBio for the human MC1R and human MC4R according to the protocol provided by the vendor. BHK cells expressing the human MC1 or MC4 receptor were generated by stable transfection with expression vectors encoding the cDNA of either MC1R or MC4R. In details; 25 μl compound—or standard solution were added in the respective wells.
(§3) Compound was reconstituted in buffer (DMEM w/o phenol red, 10 mM Hepes, lx Glutamine, 0.1% OV-albumin1, 1 mM IBMX) and serially diluted starting at 2 μM, 10-fold seven times. Dilutions were carried out in the same aforementioned buffer to the desired working concentration ranges (2× higher than the final concentration). 25 μl cell solution was then added and allowed to incubate for 30 min while lightly shaking, at 25° C. […] The provided components for the assay were reconstituted according to the CisBio assay protocol “3.1 supplied reagents and preparation procedure” in MilliQ purification system H2O and diluted 1:20 in lysis buffer. 25 μl cAMP-d2 and 25 μl Cryptate conjugate were added to all wells. Plates were centrifuged at 1500 rpm for 30 sec and incubated for 1 h, lightly shaking, at 25° C. in a hotel stacker. The plates were read on Mithras LB 940 provided by Berthold Technologies
(§4) The data were analysed by non-linear regression analysis of binding curves, using the Windows™ program GraphPad™ Prism (GraphPad Software, USA). EC50 is a measure of the potency of a given compound and is defined herein as the half maximal effective concentration of the compound which induces a response (cAMP induction) halfway between the baseline and maximum response value after a fixed reaction time. Data listed as >, indicate that the highest concentration tested had no effect, where “no effect” is defined as the highest compound concentration with agonistic effect 5% of maximal response of the reference compound NDP-alpha-MSH. […]

The target in experiment [2] is T2, human MC4R (Homo sapiens, UniProt P32245).
T2 construct: expressed in transfected cells
T2 sequence (P32245 whole entry): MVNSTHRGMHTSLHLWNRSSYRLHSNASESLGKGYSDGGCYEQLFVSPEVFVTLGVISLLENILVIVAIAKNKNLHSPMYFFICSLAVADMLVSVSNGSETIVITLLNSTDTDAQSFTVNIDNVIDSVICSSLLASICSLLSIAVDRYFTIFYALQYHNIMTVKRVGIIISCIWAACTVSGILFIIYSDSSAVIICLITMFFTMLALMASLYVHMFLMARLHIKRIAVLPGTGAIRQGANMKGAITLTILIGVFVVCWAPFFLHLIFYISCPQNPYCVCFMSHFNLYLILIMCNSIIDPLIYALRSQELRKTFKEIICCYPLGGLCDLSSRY
In words: Functional human melanocortin receptor 4 assay (cAMP, HTRF). In kind it is cell-based. Conditions: cAMP induction, BHK cells expressing the human MC4 receptor, 30 min, 25° C. The protocol: as §1, §2, §3, §4

For experiment [3], the target named is T1, human MC1R. Nature of the experiment: MC1 receptor binding assay (SPA, 125I-NDP-α-MSH). Conditions: displacement of 125I-NDP-α-MSH, membranes from BHK cells stably expressing the human MC1 receptor, read-out: MC1R binding IC50. The protocol: In Vitro ^125I-NDP-α-MSH Binding to Recombinant BHK Cells Stably Expressing the Human MC1 Receptor (SPA Binding Assay).
In order to assess the binding affinity of the selected compounds for the human MC1R, competitive binding assays were performed with radiolabelled NDP-alpha MSH (^125I-NDP-α-MSH) and membranes from BHK cells stably expressing the human MC1 receptor.
(§5) The BHK cell membranes are prepared from frozen or fresh cells that are homogenised in ice cold buffer (20 mM HEPES, 5 mM MgCl2, 1 mg/ml Bacitracin, pH 7.1 and one Complete™ Protease Inhibitor Cocktail Tablet per 25 ml (Catalogue number 05 056 489 001 from Roche-applied-science)) and centrifuged at 25000 g at 4° C. for 10 minutes. The supernatant is discarded, and the pellets are re-suspended in the buffer, and then homogenised and centrifuged two more times. The pellets are pooled, and the final pellet is re-suspended in buffer, aliquoted and subsequently stored at −80° C.
(§6) The SPA Binding assay was performed in 96-well white opaque plates. Each well contained: 0.5 mg PVT-WGA SPA beads, MC1 receptor expressing membrane diluted to give approximately 10% specific tracer binding, 50.000 dpm ^125I-NDP-α-MSH and relevant dilutions of test compound. The final volume in each well was 200 μl. Assay buffer was 25 mM HEPES, pH 7.0, containing 1.5 mM CaCl2, 1 mM MgSO4, 0.21% (w/v) ovalbumin, 1 mM 1,10-Phenanthroline and one Complete™ Protease Inhibitor Cocktail Tablet per 100 ml. Plates were incubated overnight (22-24 hours) at room temperature before counting for 2 minutes per well, using a TopCount NXT scintillation counter. Displacement of radio ligand is measured as reduction in light emission from SPA beads, and IC50 values are calculated by nonlinear regression analysis of sigmoidal dose-response curves in GraphPad Prism (GraphPad Software, La Jolla, Calif., USA).
For orientation: Loss of bound radioactivity is the signal in a displacement assay; it reports binding, not function.

For experiment [4], the target named is T2, human MC4R. Nature of the experiment: MC4 receptor binding assay (SPA, 125I-NDP-α-MSH). Particulars: displacement of 125I-NDP-α-MSH, membranes from BHK cells stably expressing the human MC4 receptor, read-out: MC4R binding IC50. The protocol: In Vitro ^125I-NDP-α-MSH Binding to Recombinant BHK Cells Stably Expressing the Human MC4 Receptor (SPA Binding Assay).
In order to assess the binding affinity of the selected compounds for the human MC4R, competitive binding assays were performed with radiolabelled NDP-alpha MSH (^125I-NDP-α-MSH) and membranes from BHK cells stably expressing the human MC4 receptor.
as §5
as §6, with “MC4” for “MC1”

The structures appear in SMILES notation. Starred links: 1 amine or outer side, 2 acyl side, 3 side chain; linkers in the order of their positions; H or OH if unused. Positions of bridges follow the written chain, without caps; N, C: chain ends. Non-standard residues stand in square brackets, D forms with d. Residues, ends and D or L forms follow the SMILES beside them. dPhe(4-Cl) = N[C@H](Cc1ccc(Cl)cc1)C(=O)O; X1 = NC(N)NCCC[C@@H](N[*:1])C(=O)[*:2]; X3 = NCNCCC[C@@H](N[*:1])C(=O)[*:2]; X2 = NCNCCC[C@H](N[*:1])C(=O)[*:2]; Nle = CCCC[C@H](N)C(=O)O

T1 sequence (Q01726 whole entry): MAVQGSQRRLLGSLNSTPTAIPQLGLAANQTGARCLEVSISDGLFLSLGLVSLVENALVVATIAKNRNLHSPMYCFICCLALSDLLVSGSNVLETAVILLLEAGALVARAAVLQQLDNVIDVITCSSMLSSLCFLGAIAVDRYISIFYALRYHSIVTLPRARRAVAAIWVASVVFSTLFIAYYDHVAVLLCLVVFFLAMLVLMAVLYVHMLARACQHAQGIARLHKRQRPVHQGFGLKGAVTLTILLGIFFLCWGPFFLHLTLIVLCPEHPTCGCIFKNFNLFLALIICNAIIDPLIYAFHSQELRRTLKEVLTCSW

For the molecule `CCCC[C@H](NC(=O)[C@H](CCC(=O)O)NC(=O)[C@@H](CCCNC(=N)N)NC(=O)[C@@H]1CCCN1C(=O)[C@@H]1CCCN1C(=O)[C@@H]1CSSC[C@H](NC(=O)[C@H](CCCNC(=N)N)NC(C)=O)C(=O)N2CCC[C@H]2C(=O)N[C@@H](Cc2c[nH]cn2)C(=O)N[C@H](Cc2ccccc2)C(=O)N[C@@H](Cc2c[nH]cn2)C(=O)N[C@@H](Cc2c[nH]c3ccccc23)C(=O)N1)C(=O)N[C@H](CCCNC(N)N)C(=O)N[C@H](CCCNC(=N)N)C(N)=O` [Chem. 5, Ac-Arg-c[Cys-Pro-His-D- Phe-His-Trp-Cys]-Pro- Pro-D-Arg-Glu-Nle-D- Arg-D-Arg-NH2] (Ac-RCPH[dF]HWCPP[dR]E[Nle][X1][dR]-NH2; disulfide 2-8), in experiment [1], it took 172 nM to reach a half-maximal effect (EC50).
As for `CCCC[C@H](NC(=O)[C@H](CCC(=O)O)NC(=O)[C@@H](CCCNC(=N)N)NC(=O)[C@@H]1CCCN1C(=O)[C@@H]1CCCN1C(=O)[C@@H]1CSSC[C@H](NC(=O)[C@H](CCCNC(=N)N)NC(C)=O)C(=O)N2CCC[C@H]2C(=O)N[C@@H](Cc2c[nH]cn2)C(=O)N[C@H](Cc2ccccc2)C(=O)N[C@@H](Cc2c[nH]cn2)C(=O)N[C@@H](Cc2c[nH]c3ccccc23)C(=O)N1)C(=O)N[C@H](CCCNC(N)N)C(=O)N[C@H](CCCNC(=N)N)C(N)=O` [Chem. 6, Ac-D-Arg-c[Cys-Pro-His- D-Phe-His-Trp-Cys]-Pro- Pro-D-Arg-Glu-Nle-D- Arg-D-Arg-NH2] (Ac-RCPH[dF]HWCPP[dR]E[Nle][X1][dR]-NH2; disulfide 2-8), the results for the EC50 in experiment [2] and in experiment [1] were 0.32 nM and 126 nM, respectively. The values for the half-maximal inhibitory concentration (IC50) in experiment [3] and in experiment [4] were 44.1 nM and 0.35 nM, respectively.
Consider `CCCC[C@H](NC(=O)[C@H](CCC(=O)O)NC(=O)[C@@H](CCCNC(=N)N)NC(=O)[C@@H]1CCCN1C(=O)[C@@H]1CCCN1C(=O)[C@@H]1CSSC[C@H](NC(C)=O)C(=O)N2CCC[C@H]2C(=O)N[C@@H](Cc2c[nH]cn2)C(=O)N[C@H](Cc2ccc(Cl)cc2)C(=O)N[C@@H](Cc2c[nH]cn2)C(=O)N[C@@H](Cc2c[nH]c3ccccc23)C(=O)N1)C(=O)N[C@H](CCCNCN)C(=O)N[C@H](CCCNC(=N)N)C(N)=O` [Chem. 10, Ac-c[Cys-Pro-His-D-Cl- Phe-His-Trp-Cys]-Pro- Pro-D-Arg-Glu-Nle-D- Arg-D-Arg-NH2] (Ac-CPH[dPhe(4-Cl)]HWCPP[dR]E[Nle][X3][dR]-NH2; disulfide 1-7), for which the IC50 (as a rule, the concentration that gives 50% inhibition) in experiment [3] was 172 nM.
Take `CCCC[C@H](NC(=O)[C@H](CCC(=O)O)NC(=O)[C@@H](CCCNC(=N)N)NC(=O)[C@@H]1CCCN1C(=O)[C@@H]1CCCN1C(=O)[C@@H]1CSSC[C@H](NC(C)=O)C(=O)N2CCC[C@H]2C(=O)N[C@@H](Cc2c[nH]cn2)C(=O)N[C@H](Cc2ccccc2)C(=O)N[C@@H](Cc2c[nH]cn2)C(=O)N[C@@H](Cc2c[nH]c3ccccc23)C(=O)N1)C(=O)N[C@@H](CCCNCN)C(=O)N[C@H](CCCNC(=N)N)C(N)=O` [Chem. 15, Ac-c[Cys-Pro-His-D-Phe- His-Trp-Cys]-Pro-D- Arg-Glu-Nle-Arg-D-Arg- NH2] (Ac-CPH[dF]HWCPP[dR]E[Nle][X2][dR]-NH2; disulfide 1-7): the IC50 in experiment [4] amounted to 0.88 nM.
Consider `CCCC[C@H](NC(=O)[C@H](CCC(=O)O)NC(=O)[C@@H](CCCNC(=N)N)NC(=O)[C@@H]1CCCN1C(=O)[C@@H]1CCCN1C(=O)[C@@H]1CSSC[C@H](NC(C)=O)C(=O)N2CCC[C@H]2C(=O)N[C@@H](Cc2c[nH]cn2)C(=O)N[C@H](Cc2ccccc2)C(=O)N[C@@H](Cc2c[nH]cn2)C(=O)N[C@@H](Cc2c[nH]c3ccccc23)C(=O)N1)C(=O)N[C@H](CCCNC(=N)N)C(=O)N[C@H](CCCNC(=N)N)C(=O)N[C@H](CCCNC(=N)N)C(N)=O` [Chem. 16, Ac-c[Cys-Pro-His-D-Phe- His-Trp-Cys]-Pro-Pro-D- Arg-Glu-Nle-D-Arg-D- Arg-D-Arg-NH2] (Ac-CPH[dF]HWCPP[dR]E[Nle][dR][dR][dR]-NH2; disulfide 1-7), for which the midpoint of the response in experiment [2], the EC50, lay at 0.16 nM. Further, the values for the IC50 in experiment [3] and in experiment [4] were 138 nM and 0.27 nM, respectively.
Take `CC(=O)N[C@H](CCCNC(=N)N)C(=O)N[C@H]1CSSC[C@@H](C(=O)N2CCC[C@H]2C(=O)N2CCC[C@H]2C(=O)N[C@H](CCCNC(=N)N)C(=O)N[C@H](CCCNC(=N)N)C(N)=O)NC(=O)[C@H](Cc2c[nH]c3ccccc23)NC(=O)[C@H](Cc2c[nH]cn2)NC(=O)[C@@H](Cc2ccccc2)NC(=O)[C@H](Cc2c[nH]cn2)NC(=O)[C@@H]2CCCN2C1=O` [Chem. 18, Ac-D-Arg-c[Cys-Pro-His- D-Phe-His-Trp-Cys]-Pro- Pro-D-Arg-D-Arg-NH2] (Ac-[dR]CPH[dF]HWCPP[dR][dR]-NH2; disulfide 2-8): the EC50 (in general, the concentration that produces a half-maximal response) was found to be 0.19 nM in experiment [2] and 179 nM in experiment [1]. In addition, the figures for the IC50 in experiment [3] and in experiment [4] were 69 nM and 0.39 nM, respectively.
